Earlier results in patent publication US20200069777A1, “ANTIMICROBIAL COMPOSITIONS AND FORMULATIONS” (Matoke Holdings Limited, priority 2016, published 2020).

Conditions: 20° C. and 1 atm

solubility: 90 g/100 g water
Compound: O=C[C@H](O)[C@@H](O)[C@H](O)[C@H](O)CO [Glucose]
